Test results published in US20240293563A1, “GLP-1 RECEPTOR LIGAND MOIETY CONJUGATED OLIGONUCLEOTIDES AND USES THEREOF” (priority 2017, published 2024).
Square brackets hold non-standard residues; d marks the D form. Side chains are listed from the residue outwards. Ends that are not written are not given here. 5'‑hexylamino oligonucleotide ION 913192 = not defined here; Aib = CC(C)(N)C(=O)O; Mpa = O=C(O)CCS

Legend:
FOXO1 mRNA [1] = assay: FOXO1 mRNA in cultured mouse primary islets of Langerhans treated with ASO; format: cell-based; conditions: for Islet FOXO1 mRNA levels relative to control (RPLP0): percent of untreated cells, 1 μM ASO 3 hrs every 24 hrs
Description: Pancreatic islets were isolated by collagenase digestion from pancreas collected from exsanguinated 12 to 15 weeks old female C57BL/6Crl mice. Islets were maintained in tissue culture until use. Islet were dissociated into single cells by shaking in media containing a low extracellular calcium concentration. 10 to 20 intact or dissociated islets were plated on plastic Petri Dishes and treated with 10 μM of antisense oligonucleotides for approximately 24 hrs. After the treatment period cells were harvested, RNA isolated, adjusted to total RNA content, as measured by RIBOGREEN®. MALAT1 or FOXO1 mRNA levels measured by quantitative real-time PCR. […] All data was normalized to the mRNA level of the house keeping gene (RPLP0) in the same sample, measured using a primer probe set with forward sequence […] NO: 71), reverse sequence […] NO: 72) and probe sequence […] NO: 73). Pancreatic islets were isolated by collagenase digestion from pancreas collected from euthanized 12 to 15 weeks old female B6.Cg-Lepob/J mice and maintained in tissue culture until use. 150 intact islets were placed in plastic Petri Dishes and treated with 1 μM of antisense oligonucleotides for 3 hrs every 24 hrs and harvested after approximately 24 hrs, 48 hrs or 96 hrs total treatment time respectively. After the treatment period, islets were harvested, and half of the islets were used to measure FOXO1 mRNA levels as described herein (Example 9). Half of the islets were homogenized in M-PER protein extraction reagent (Thermo Scientific) containing a protease inhibitor cocktail (Complete Mini and phosphoSTOP, Roche Diagnostics). The protein content of lysates were quantitated using BCA Assay Reagent (Pierce). […] For the anti-FoxO1 antibody, the secondary antibody was HRP-conjugated polyclonal goat anti-Rabbit P0448 (DAKO) and for the anti-α-tubulin antibody, the secondary antibody was HRP-conjugated polyclonal goat anti-mouse P0447 (DAKO). Enhanced chemiluminescence reagents (Pierce) were used for detection.

FoxO1 protein [2] = assay: FoxO1 protein (Western Blot) in cultured mouse primary islets of Langerhans treated with ASO; format: cell-based; conditions: Western Blot normalized to α-tubulin; islets treated for 96 hours; 1 μM
Description: Pancreatic islets were isolated by collagenase digestion from pancreas collected from euthanized 12 to 15 weeks old female B6.Cg-Lepob/J mice and maintained in tissue culture until use. 150 intact islets were placed in plastic Petri Dishes and treated with 1 μM of antisense oligonucleotides for 3 hrs every 24 hrs and harvested after approximately 24 hrs, 48 hrs or 96 hrs total treatment time respectively. After the treatment period, islets were harvested, and half of the islets were used to measure FOXO1 mRNA levels as described herein (Example 9). Half of the islets were homogenized in M-PER protein extraction reagent (Thermo Scientific) containing a protease inhibitor cocktail (Complete Mini and phosphoSTOP, Roche Diagnostics). The protein content of lysates were quantitated using BCA Assay Reagent (Pierce). […] For the anti-FoxO1 antibody, the secondary antibody was HRP-conjugated polyclonal goat anti-Rabbit P0448 (DAKO) and for the anti-α-tubulin antibody, the secondary antibody was HRP-conjugated polyclonal goat anti-mouse P0447 (DAKO). Enhanced chemiluminescence reagents (Pierce) were used for detection. […] Protein levels were quantified by measuring the intensity of the bands on the gel normalized to the intensity of α-tubulin, and expressed as percent of vehicle treated islets. FoxO1 protein levels were set to 100% in vehicle treated islets. […]

FOXO1 mRNA [3] = assay: FOXO1 mRNA in isolated islets and liver after 6 weeks repeated administration to ob/ob mice; format: in vivo, mouse; conditions: ob/ob mice
Description: Pancreatic islets were isolated by collagenase digestion from pancreas collected from exsanguinated 12 to 15 weeks old female C57BL/6Crl mice. Islets were maintained in tissue culture until use. Islet were dissociated into single cells by shaking in media containing a low extracellular calcium concentration. 10 to 20 intact or dissociated islets were plated on plastic Petri Dishes and treated with 10 μM of antisense oligonucleotides for approximately 24 hrs. After the treatment period cells were harvested, RNA isolated, adjusted to total RNA content, as measured by RIBOGREEN®. MALAT1 or FOXO1 mRNA levels measured by quantitative real-time PCR. […] All data was normalized to the mRNA level of the house keeping gene (RPLP0) in the same sample, measured using a primer probe set with forward sequence […] NO: 71), reverse sequence […] NO: 72) and probe sequence […] NO: 73). Male ob/ob mice (B6.V-Lepob/OlaHsd, Harlan) were assigned to five treatment groups receiving either vehicle, 0.1 μmol/kg ISIS 776102, 0.1 μmol/kg ION 913195, 0.03 ION 913193 or 1 μmol/kg ION 913193. All animals were treated once weekly for 6 weeks. Approximately 120 hrs after last dose all animals were sacrificed, liver samples collected and pancreatic islets isolated, as described herein (Example 9), for mRNA analysis. FOXO1 mRNA levels were quantified as described herein (Example 9) and mRNA levels expressed relative to housekeeping gene in each sample (RPLP0).

FoxO1 protein [4] = assay: FoxO1 protein levels in islets isolated from ob/ob mice treated for 6 weeks; format: in vivo, mouse
Description: Pancreatic islets were isolated by collagenase digestion from pancreas collected from euthanized 12 to 15 weeks old female B6.Cg-Lepob/J mice and maintained in tissue culture until use. 150 intact islets were placed in plastic Petri Dishes and treated with 1 μM of antisense oligonucleotides for 3 hrs every 24 hrs and harvested after approximately 24 hrs, 48 hrs or 96 hrs total treatment time respectively. After the treatment period, islets were harvested, and half of the islets were used to measure FOXO1 mRNA levels as described herein (Example 9). Half of the islets were homogenized in M-PER protein extraction reagent (Thermo Scientific) containing a protease inhibitor cocktail (Complete Mini and phosphoSTOP, Roche Diagnostics). The protein content of lysates were quantitated using BCA Assay Reagent (Pierce). […] For the anti-FoxO1 antibody, the secondary antibody was HRP-conjugated polyclonal goat anti-Rabbit P0448 (DAKO) and for the anti-α-tubulin antibody, the secondary antibody was HRP-conjugated polyclonal goat anti-mouse P0447 (DAKO). Enhanced chemiluminescence reagents (Pierce) were used for detection. Male ob/ob mice (B6.V-Lepob/OlaHsd, Harlan) were assigned to five treatment groups receiving either vehicle, 0.1 μmol/kg ISIS 776102, 0.1 μmol/kg ION 913195, 0.03 ION 913193 or 1 μmol/kg ION 913193. All animals were treated once weekly for 6 weeks. Approximately 120 hrs after last dose all animals were sacrificed, liver samples collected and pancreatic islets isolated, as described herein (Example 9), for mRNA analysis. FOXO1 mRNA levels were quantified as described herein (Example 9) and mRNA levels expressed relative to housekeeping gene in each sample (RPLP0). Male ob/ob mice were assigned to five treatment groups as described herein (Example 17) Approximately 120 hrs after last dose all animals were sacrificed and pancreatic islets isolated for FoxO1 protein analysis as described herein (Example 10). Random samples were selected from each treatment group and loaded on each gel such that at least one sample from each treatment group was analysed on the same gels. FoxO1 protein levels were measured by quantifying the intensity and normalized against the α-tublin levels in the same sample. All samples within individual gels were expressed as percentage of the levels measured in islets of animals receiving ION 913195.

[5] = 0.03 μmol/kg once weekly for 6 weeks
[6] = 0.1 μmol/kg once weekly for 6 weeks

Substance: ION 913193 (H[Aib]EGTFTSDVSSYLEEQAAKEFIAWLVKGGPSSGAPPPSC([Mpa-5'‑hexylamino oligonucleotide ION 913192])-NH2; reading uncertain; also: Cys40 joined to the linker by a disulfide)
- reduction in FOXO1 mRNA (FOXO1 mRNA [1]; mouse islets, 1 μM ASO, summary of Table 2): more than 70%
- Islet FOXO1 mRNA levels relative to control (RPLP0) (FOXO1 mRNA [1]; 24 hours): 31%
- Islet FOXO1 mRNA levels relative to control (RPLP0) (FOXO1 mRNA [1]; 48 hours): 30%
- Islet FOXO1 mRNA levels relative to control (RPLP0) (FOXO1 mRNA [1]; 96 hours): 25%
- FoxO1 protein levels, percent of vehicle treated islets (FoxO1 protein [2]): 5%
- average FOXO1 mRNA reduction in isolated islets of Langerhans (FOXO1 mRNA [3]; [5]): 42%
- average FOXO1 mRNA reduction in isolated islets of Langerhans (FOXO1 mRNA [3]; [6]): 72%
- Foxo1 protein levels reduced relative to ION 913195 (FoxO1 protein [4]; [5]): 57%
- Foxo1 protein levels reduced relative to animals treated with 0.1 μmol/kg ISIS 776102 (FoxO1 protein [4]; [5]): 64%
- Foxo1 protein levels reduced relative to ION 913195 (FoxO1 protein [4]; [6]): 81%
- Foxo1 protein levels reduced relative to animals treated with 0.1 μmol/kg ISIS 776102 (FoxO1 protein [4]; [6]): 36%
